Assay results: patent publication US9181218B2, “Compounds for improved stem cell differentiation into hepatocytes” (Hoffmann-La Roche Inc., priority 2013, dated 2015)

Tested on: interferon-stimulated genes (ISGs)
Experiment: Microarray analysis of iCell Hepatocytes treated with the compound of example 1
Assay type: cell-based, Human
Source text: iCell Hepatocytes treated with the compound of example 1 results in the up and down-regulation of a host of genes; including a kinetic effect on interferon-stimulated gene (ISGs) expression. See FIGS. 15-I and 15-II, 16-I and 16-II and 18 and Table 1.

## O=C(NCc1cccc(F)c1)c1cccc2nc(-c3c(NC[C@@H](O)c4ccccc4)cc[nH]c3=O)[nH]c12 [Example 1, 2-[4-((S)-2-hydroxy-2-phenyl-ethylamino)-2-oxo-1,2-dihydro-pyridin-3-yl]-3H-benzoimidazole-4-carboxylic acid 3-fluoro-benzylamide]
DAY 7
  ARHGEF3 Raw Est Fold Change: −2.76
  ASNS Raw Est Fold Change: 1.63
  ATP1B3 Raw Est Fold Change: −1.72
  ATP10D Raw Est Fold Change: −2.21
  AXL Raw Est Fold Change: 5.52
  B2M Raw Est Fold Change: −1.77
  B4GALT5 Raw Est Fold Change: −2.50
  BAG1 Raw Est Fold Change: 1.33
  BCL3 Raw Est Fold Change: −3.15
  BHMT Raw Est Fold Change: 100.46
  BLVRA Raw Est Fold Change: −2.70
  BRF2 Raw Est Fold Change: 1.46
  C1R Raw Est Fold Change: −2.64
  C1S Raw Est Fold Change: −2.00
  C4BPA Raw Est Fold Change: −3.52
  C4orf33 Raw Est Fold Change: 1.65
  C6orf85 Raw Est Fold Change: 1.31
  C10orf10 Raw Est Fold Change: −6.70
  CAPN2 Raw Est Fold Change: −1.90
  CASP1 Raw Est Fold Change: 1.40
  CASP4 Raw Est Fold Change: −43.41
  CASP5 Raw Est Fold Change: −11.12
  CCL19 Raw Est Fold Change: 2.16
  CCND3 Raw Est Fold Change: −4.18
  CD3D Raw Est Fold Change: −3.72
  CD9 Raw Est Fold Change: 4.66
  CD38 Raw Est Fold Change: −60.43
  CD47 Raw Est Fold Change: −2.51
  CD163 Raw Est Fold Change: 4.54
  CD164 Raw Est Fold Change: −1.47
  CD300LF Raw Est Fold Change: −15.50
  CEBPD Raw Est Fold Change: −6.95
  CFB Raw Est Fold Change: −2.96
  CHST12 Raw Est Fold Change: −1.59
  CKB Raw Est Fold Change: 2.95
  CLEC2D Raw Est Fold Change: 2.54
  CLEC4E Raw Est Fold Change: 4.33
  COL16A1 Raw Est Fold Change: 1.53
  CPT1A Raw Est Fold Change: 1.49
  CREB3L3 Raw Est Fold Change: −4.65
  CREM Raw Est Fold Change: 1.71
  CRP Raw Est Fold Change: −63.77
  CRYM Raw Est Fold Change: 3.57
  CSDA Raw Est Fold Change: −5.60
  CTGF Raw Est Fold Change: −3.88
  CX3CR1 Raw Est Fold Change: 9.27
  CXCL11 Raw Est Fold Change: 3.15
  CYP1B1 Raw Est Fold Change: −6.56
  CYR61 Raw Est Fold Change: −7.93
  DHFR Raw Est Fold Change: 2.31
  DNAPTP6 Raw Est Fold Change: 2.61
  EFNB2 Raw Est Fold Change: −7.87
  EGR1 Raw Est Fold Change: −4.88
  EHHADH Raw Est Fold Change: 6.99
  EIF2AK2 Raw Est Fold Change: −1.14
  EIF2S2 Raw Est Fold Change: 1.81
  EMP1 Raw Est Fold Change: 2.60
  EPAS1 Raw Est Fold Change: −1.83
  EREG Raw Est Fold Change: −21.64
  ETS2 Raw Est Fold Change: −2.17
  ETV6 Raw Est Fold Change: −1.87
  ETV7 Raw Est Fold Change: −3.42
  EWSR1 Raw Est Fold Change: −2.03
  F3 Raw Est Fold Change: 2.54
  FAM70A Raw Est Fold Change: 4.10
  FAM102A Raw Est Fold Change: −1.88
  FBXO6 Raw Est Fold Change: 3.59
  FCGR1A Raw Est Fold Change: 2.56
  FER1L3 Raw Est Fold Change: −2.43
  FGG Raw Est Fold Change: −1.22
  FLT1 Raw Est Fold Change: −1.38
  FNDC3B Raw Est Fold Change: −2.02
  G6PC Raw Est Fold Change: 6.12
  GALNT2 Raw Est Fold Change: −6.32
  GBP2 Raw Est Fold Change: −4.50
  GBP3 Raw Est Fold Change: 2.28
  GCH1 Raw Est Fold Change: 1.83
  GK Raw Est Fold Change: −2.38
  GLB1 Raw Est Fold Change: −1.33
  GLUL Raw Est Fold Change: 3.54
  GNB1 Raw Est Fold Change: −1.39
  GPR171 Raw Est Fold Change: 1.93
  GRN Raw Est Fold Change: −1.37
  HAO1 Raw Est Fold Change: 3.59
  HBE1 Raw Est Fold Change: −2.67
  HDAC2 Raw Est Fold Change: −1.34
  HEG1 Raw Est Fold Change: −4.07
  HERC6 Raw Est Fold Change: −1.49
  HESX1 Raw Est Fold Change: 3.01
  HIF1A Raw Est Fold Change: −4.78
  HK2 Raw Est Fold Change: −3.18
  HLA-DMA Raw Est Fold Change: −2.39
  HLA-DOA Raw Est Fold Change: 3.70
  HPSE Raw Est Fold Change: −2.92
  ICAM1 Raw Est Fold Change: −9.02
  ID1 Raw Est Fold Change: −5.53
  IER3 Raw Est Fold Change: −9.69
  IFI16 Raw Est Fold Change: −11.00
  IFIH1 Raw Est Fold Change: 1.47
  IFIT1 Raw Est Fold Change: 16.72
  IFIT3 Raw Est Fold Change: 2.91
  IFITM1 Raw Est Fold Change: −15.75
  IFITM2 Raw Est Fold Change: −4.71
  IFITM3 Raw Est Fold Change: −1.73
  IFNGR1 Raw Est Fold Change: −3.76
  IGHM Raw Est Fold Change: 3.80
  IKZF2 Raw Est Fold Change: −2.69
  IL1RN Raw Est Fold Change: −2.59
  IL6ST Raw Est Fold Change: −1.83
  IL8 Raw Est Fold Change: −9.22
  IL17RB Raw Est Fold Change: 1.38
  IL28RA Raw Est Fold Change: 1.55
  IMPA2 Raw Est Fold Change: −1.62
  INPP5B Raw Est Fold Change: 1.29
  IQGAP1 Raw Est Fold Change: −2.60
  IRF1 Raw Est Fold Change: 1.36
  IRF7 Raw Est Fold Change: −3.42
  IRF8 Raw Est Fold Change: −1.86
  ISOC1 Raw Est Fold Change: 1.96
  ITGA2 Raw Est Fold Change: −5.40
  ITGA6 Raw Est Fold Change: 1.89
  JAK2 Raw Est Fold Change: 1.39
  JUNB Raw Est Fold Change: −8.16
  KIAA0040 Raw Est Fold Change: −1.76
  KIF5C Raw Est Fold Change: −4.32
  KPNB1 Raw Est Fold Change: −1.34
  LRP4 Raw Est Fold Change: −2.80
  LTBP2 Raw Est Fold Change: −2.94
  LYN Raw Est Fold Change: −1.71
  MAFB Raw Est Fold Change: 6.31
  MAFK Raw Est Fold Change: −1.70
  MAP3K8 Raw Est Fold Change: −6.22
  MAX Raw Est Fold Change: −1.95
  MCL1 Raw Est Fold Change: −1.33
  MSR1 Raw Est Fold Change: 16.00
  MT1F Raw Est Fold Change: 2.56
  MTHFD2L Raw Est Fold Change: −5.12
  MTMR1 Raw Est Fold Change: −1.20
  MYC Raw Est Fold Change: −7.27
  MYD88 Raw Est Fold Change: 1.19
  MYOM2 Raw Est Fold Change: 1.59
  MYT1 Raw Est Fold Change: −3.88
  NEXN Raw Est Fold Change: −2.35
  NFE2 Raw Est Fold Change: −5.79
  NFIL3 Raw Est Fold Change: −1.60
  NGFB Raw Est Fold Change: 1.97
  NLRC5 Raw Est Fold Change: −3.27
  NMI Raw Est Fold Change: 1.34
  NPAS2 Raw Est Fold Change: −4.43
  OPTN Raw Est Fold Change: 1.28
  PADI2 Raw Est Fold Change: 4.13
  PARP14 Raw Est Fold Change: 1.33
  PCK2 Raw Est Fold Change: 8.00
  PCMT1 Raw Est Fold Change: −1.45
  PCTK3 Raw Est Fold Change: 2.27
  PDGFRL Raw Est Fold Change: −3.16
  PEX26 Raw Est Fold Change: 1.38
  PHF11 Raw Est Fold Change: −2.75
  PHF15 Raw Est Fold Change: −1.69
  PHLDA1 Raw Est Fold Change: −9.08
  PI4K2B Raw Est Fold Change: 1.41
  PIM3 Raw Est Fold Change: −2.64
  PLAC8 Raw Est Fold Change: 5.43
  PLAUR Raw Est Fold Change: −2.56
  PLSCR1 Raw Est Fold Change: −2.59
  PML Raw Est Fold Change: −2.58
  PON1 Raw Est Fold Change: 5.18
  PON2 Raw Est Fold Change: −1.39
  PPIC Raw Est Fold Change: −2.26
  PSMB10 Raw Est Fold Change: 1.91
  PTEN Raw Est Fold Change: −1.44
  PUS1 Raw Est Fold Change: −1.41
  PXK Raw Est Fold Change: −1.23
  RAB27A Raw Est Fold Change: −5.10
  RAN Raw Est Fold Change: −1.29
  RBMS1 Raw Est Fold Change: −3.48
  RECQL Raw Est Fold Change: −1.66
  RIPK2 Raw Est Fold Change: −1.45
  RPL22 Raw Est Fold Change: 3.02
  RSAD2 Raw Est Fold Change: 5.52
  RXRA Raw Est Fold Change: 1.28
  SAA1 Raw Est Fold Change: −1.51
  SAMD9L Raw Est Fold Change: 2.42
  SCARB2 Raw Est Fold Change: 1.64
  SDC2 Raw Est Fold Change: 1.66
  SELL Raw Est Fold Change: 3.83
  SELP Raw Est Fold Change: 5.95
  SERPINB9 Raw Est Fold Change: −1.86
  SF3A1 Raw Est Fold Change: 1.26
  SFPQ Raw Est Fold Change: −1.57
  SHMT2 Raw Est Fold Change: 1.44
  SLC7A5 Raw Est Fold Change: 1.78
  SLC10A1 Raw Est Fold Change: 10.61
  SLC15A2 Raw Est Fold Change: −1.52
  SLC20A1 Raw Est Fold Change: 1.90
  SLC25A28 Raw Est Fold Change: −1.47
  SLC30A1 Raw Est Fold Change: 2.66
  SLFN12 Raw Est Fold Change: −1.92
  SOAT2 Raw Est Fold Change: 11.97
  SOCS1 Raw Est Fold Change: −42.96
  SOCS3 Raw Est Fold Change: −17.74
  SPSB1 Raw Est Fold Change: −2.63
  SPTLC2 Raw Est Fold Change: −1.49
  SRGAP2 Raw Est Fold Change: 1.95
  SSBP3 Raw Est Fold Change: 1.49
  SSR1 Raw Est Fold Change: −1.71
  STAT1 Raw Est Fold Change: −4.03
  STEAP4 Raw Est Fold Change: −1275.83
  STK39 Raw Est Fold Change: −1.88
  TAP1 Raw Est Fold Change: −1.72
  TAP2 Raw Est Fold Change: −2.02
  TARBP1 Raw Est Fold Change: −1.18
  TCF7L2 Raw Est Fold Change: −1.57
  TEAD4 Raw Est Fold Change: −6.47
  TFDP2 Raw Est Fold Change: 1.26
  TFEC Raw Est Fold Change: 7.83
  TFPI Raw Est Fold Change: −1.80
  THBD Raw Est Fold Change: −6.70
  TIMP1 Raw Est Fold Change: −11.92
  TMEM2 Raw Est Fold Change: −3.07
  TMEM49 Raw Est Fold Change: −1.98
  TNFSF14 Raw Est Fold Change: −2.68
  TOR1B Raw Est Fold Change: −1.39
  TPM1 Raw Est Fold Change: 1.77
  TRIB3 Raw Est Fold Change: 1.84
  TRIM14 Raw Est Fold Change: 1.68
  TXNIP Raw Est Fold Change: −7.72
  UBE1L Raw Est Fold Change: 1.65
  UBE2S Raw Est Fold Change: −1.95
  ULK4 Raw Est Fold Change: −4.12
  UPP2 Raw Est Fold Change: 16.78
  USP25 Raw Est Fold Change: 1.84
  WARS Raw Est Fold Change: −1.50
  WAS Raw Est Fold Change: 3.44
  XRCC6BP1 Raw Est Fold Change: 1.33
  ZC3HAV1 Raw Est Fold Change: −1.57
  ZNF24 Raw Est Fold Change: −1.16
  ZNF276 Raw Est Fold Change: 1.44
  ZNF313 Raw Est Fold Change: 1.31
Microarray heat map, FIG. 15
  interferon-stimulated genes (ISGs) expression: down-regulated interferon-stimulated genes (ISGs) as early as 2 hr
microarray, FIG. 15
  CREB3L1 expression: down-regulated as early as 2 hr post treatment
  SLC10A1 expression: up-regulated at 7 day post-treatment
